Measured values from ChEMBL document CHEMBL1122174, “Behavioral and serotonin receptor properties of 4-substituted derivatives of the hallucinogen 1-(2,5-dimethoxyphenyl)-2-aminopropane” (J Med Chem, 1982).
The source made the active and inactive calls. No cut-off for these calls is given here.

Assays:
[1] = target: Serotonin (5-HT) receptor; assay: Binding affinity at rat 5-hydroxytryptamine receptor.; assay type: protein assay
Rattus norvegicus [2] = assay: Number of rats responding out of 5 treated rats at a dose of 0.5 mg/Kg; assay type: functional
Rattus norvegicus [3] = assay: Dose required to produce 50% hallucinogenic potency in rat was determined at a dose of 0.25 mg/kg; assay type: functional
Rattus norvegicus [4] = assay: Number of rats responding out of 5 treated rats at a dose of 0.125 mg/Kg; assay type: functional
Rattus norvegicus [5] = assay: Dose required to produce 50% hallucinogenic potency in rat was determined at a dose of 0.5 mg/kg; assay type: functional
Rattus norvegicus [6] = assay: Dose required to produce 50% hallucinogenic potency in rat was determined at a dose of 0.75 mg/kg; assay type: functional
Rattus norvegicus [7] = assay: Number of rats responding out of 5 treated rats at a dose of 0.75 mg/Kg; assay type: functional
Rattus norvegicus [8] = assay: Dose required to produce 50% hallucinogenic potency in rat was determined at a dose of 0.125 mg/kg; assay type: functional
Rattus norvegicus [9] = organism: Rattus norvegicus; assay: Dose at which the rats perform 50% appropriate drug -lever responding was determined; assay type: functional
Rattus norvegicus [10] = assay: Number of rats responding out of 5 treated rats at a dose of 0.25 mg/Kg; assay type: functional
Rattus norvegicus [11] = assay: Number of rats responding out of 5 treated rats at a dose of 1 mg/Kg; assay type: functional
Rattus norvegicus [12] = assay: Dose required to produce 50% hallucinogenic potency in rat was determined at a dose of 1 mg/kg; assay type: functional
Rattus norvegicus [13] = assay: Number of rats responding out of 5 treated rats at a dose of 1.5 mg/Kg; assay type: functional
Rattus norvegicus [14] = assay: Dose required to produce 50% hallucinogenic potency in rat was determined at a dose of 4 mg/kg; Disruption behavior; assay type: functional, organism-based; parameters: dose 4 mg/kg
Rattus norvegicus [15] = assay: Dose required to produce 50% hallucinogenic potency in rat was determined at a dose of 1.5 mg/kg; assay type: functional
Homo sapiens = organism: Homo sapiens; assay: Hallucinogenic potency was determined in humans; assay type: functional
Rattus norvegicus [16] = assay: Number of rats responding out of 5 treated rats at a dose of 0.20 mg/Kg; assay type: functional
Rattus norvegicus [17] = assay: Dose required to produce 50% hallucinogenic potency in rat was determined at a dose of 0.15 mg/kg; assay type: functional
Rattus norvegicus [18] = assay: Number of rats responding out of 5 treated rats at a dose of 0.10 mg/Kg; assay type: functional
Rattus norvegicus [19] = assay: Dose required to produce 50% hallucinogenic potency in rat was determined at a dose of 0.2 mg/kg; assay type: functional
Rattus norvegicus [20] = assay: Number of rats responding out of 5 treated rats at a dose of 0.15 mg/Kg; assay type: functional
Rattus norvegicus [21] = assay: Dose required to produce 50% hallucinogenic potency in rat was determined at a dose of 0.1 mg/kg; assay type: functional
Rattus norvegicus [22] = assay: Dose required to produce 50% hallucinogenic potency in rat was determined at a dose of 2 mg/kg; assay type: functional
Rattus norvegicus [23] = assay: Dose required to produce 50% hallucinogenic potency in rat was determined at a dose of 4 mg/kg; assay type: functional
Rattus norvegicus [24] = assay: Number of rats responding out of 5 treated rats at a dose of 2 mg/Kg; assay type: functional
Rattus norvegicus [25] = assay: Number of rats responding out of 5 treated rats at a dose of 5 mg/Kg; assay type: functional
Rattus norvegicus [26] = assay: Number of rats responding out of 5 treated rats at a dose of 4 mg/Kg; assay type: functional
Rattus norvegicus [27] = assay: Dose required to produce 50% hallucinogenic potency in rat was determined at a dose of 3 mg/kg; assay type: functional
Rattus norvegicus [28] = assay: Number of rats responding out of 5 treated rats at a dose of 3 mg/Kg; assay type: functional
Rattus norvegicus [29] = assay: Dose required to produce 50% hallucinogenic potency in rat was determined at a dose of 2.5 mg/kg; assay type: functional
Rattus norvegicus [30] = assay: Number of rats responding out of 5 treated rats at a dose of 2.5 mg/Kg; assay type: functional
Rattus norvegicus [31] = assay: Dose required to produce 50% hallucinogenic potency in rat was determined at a dose of 8 mg/kg; assay type: functional
Rattus norvegicus [32] = assay: Number of rats responding out of 5 treated rats at a dose of 10 mg/Kg; assay type: functional
Rattus norvegicus [33] = assay: Dose required to produce 50% hallucinogenic potency in rat was determined at a dose of 2.0 mg/kg; assay type: functional
Rattus norvegicus [34] = assay: Number of rats responding out of 5 treated rats at a dose of 9 mg/Kg; assay type: functional
Rattus norvegicus [35] = assay: Number of rats responding out of 5 treated rats at a dose of 8 mg/Kg; assay type: functional
Rattus norvegicus [36] = assay: Dose required to produce 50% hallucinogenic potency in rat was determined at a dose of 9 mg/kg; assay type: functional
Rattus norvegicus [37] = assay: Dose required to produce 50% hallucinogenic potency in rat was determined at a dose of 5 mg/kg; assay type: functional
Rattus norvegicus [38] = assay: Dose required to produce 50% hallucinogenic potency in rat was determined at a dose of 3.0 mg/kg; assay type: functional
Rattus norvegicus [39] = assay: Number of rats responding out of 5 treated rats at a dose of 5.5 mg/Kg; assay type: functional
Rattus norvegicus [40] = assay: Dose required to produce 50% hallucinogenic potency in rat was determined at a dose of 5.0 mg/kg; assay type: functional
Rattus norvegicus [41] = assay: Number of rats responding out of 5 treated rats at a dose of 3.5 mg/Kg; assay type: functional
Rattus norvegicus [42] = assay: Dose required to produce 50% hallucinogenic potency in rat was determined at a dose of 3.5 mg/kg; assay type: functional
Rattus norvegicus [43] = assay: Dose required to produce 50% hallucinogenic potency in rat was determined at a dose of 5.5 mg/kg; assay type: functional
Rattus norvegicus [44] = assay: Dose required to produce 50% hallucinogenic potency in rat was determined at a dose of 2 mg/kg; Disruption behavior; assay type: functional, organism-based; parameters: dose 2 mg/kg
Rattus norvegicus [45] = assay: Dose required to produce 50% hallucinogenic potency in rat was determined at a dose of 3 mg/kg; Disruption behavior; assay type: functional, organism-based; parameters: dose 3 mg/kg

## COc1cc(C[C@@H](C)N)c(OC)cc1I
[1]
  pA2: 7.63
Rattus norvegicus [2]
  No. of animals: 5
Rattus norvegicus [3]
  DOM: 47%
Rattus norvegicus [4]
  No. of animals: 5
Rattus norvegicus [5]
  DOM: 75%
Rattus norvegicus [6]
  DOM: 96%
Rattus norvegicus [7]
  No. of animals: 5
Rattus norvegicus [8]
  DOM: 18%
Rattus norvegicus [9]
  ED50: 0.26 mg/kg
Rattus norvegicus [10]
  No. of animals: 5

## COc1cc([N+](=O)[O-])c(OC)cc1C[C@@H](C)N
[1]
  pA2: 7.49
Rattus norvegicus [2]
  No. of animals: 5
Rattus norvegicus [5]
  DOM: 44%
Rattus norvegicus [11]
  No. of animals: 5
Rattus norvegicus [6]
  DOM: 61%
Rattus norvegicus [7]
  No. of animals: 5
Rattus norvegicus [12]
  DOM: 93%
Rattus norvegicus [9]
  ED50: 0.57 mg/kg

## COc1ccc(C[C@@H](C)N)cc1
Rattus norvegicus [2]
  No. of animals: 5
Rattus norvegicus [13]
  No. of animals: 1
Rattus norvegicus [5]
  DOM: 18%
Rattus norvegicus [11]
  No. of animals: 3
Rattus norvegicus [12]
  DOM: 20%
Rattus norvegicus [14]
  DOM: inactive

## COc1cc(C[C@H](C)N)c(OC)cc1Br
Rattus norvegicus [15]
  DOM: 96%
Rattus norvegicus [2]
  No. of animals: 5
Rattus norvegicus [13]
  No. of animals: 5
Rattus norvegicus [5]
  DOM: 20%
Homo sapiens
  HHP: 4 mg
Rattus norvegicus [6]
  DOM: 35%
Rattus norvegicus [7]
  No. of animals: 5
Rattus norvegicus [9]
  ED50: 0.81 mg/kg

## COc1cc(C[C@@H](C)N)c(OC)cc1Br
Rattus norvegicus [16]
  No. of animals: 5
Rattus norvegicus [17]
  DOM: 79%
Homo sapiens
  HHP: 0.4 mg
Rattus norvegicus [18]
  No. of animals: 5
Rattus norvegicus [19]
  DOM: 91%
Rattus norvegicus [20]
  No. of animals: 5
Rattus norvegicus [9]
  ED50: 0.1 mg/kg
Rattus norvegicus [21]
  DOM: 47%

## COc1cccc(CC(C)N)c1 (racemic)
Rattus norvegicus [22]
  DOM: 8%
Rattus norvegicus [23]
  DOM: 10%
Rattus norvegicus [24]
  No. of animals: 5
Rattus norvegicus [25]
  No. of animals: 1
Rattus norvegicus [26]
  No. of animals: 3
Rattus norvegicus [14]
  DOM: inactive

## COc1ccccc1CC(C)N (racemic)
Rattus norvegicus [22]
  DOM: 2%
Rattus norvegicus [27]
  DOM: 7%
Rattus norvegicus [28]
  No. of animals: 4
Rattus norvegicus [24]
  No. of animals: 5
Rattus norvegicus [26]
  No. of animals: 2
Rattus norvegicus [14]
  DOM: inactive

## COc1cc(Br)c(OC)c(CC(C)N)c1 (racemic)
Rattus norvegicus [22]
  DOM: 3%
Rattus norvegicus [27]
  DOM: 0%
Rattus norvegicus [11]
  No. of animals: 5
Rattus norvegicus [28]
  No. of animals: 4
Rattus norvegicus [24]
  No. of animals: 5
Rattus norvegicus [12]
  DOM: 2%

## COc1cc(CC(C)N)c(OC)cc1F (racemic)
Rattus norvegicus [15]
  DOM: 45%
[1]
  pA2: 7.2
Rattus norvegicus [2]
  No. of animals: 5
Rattus norvegicus [29]
  DOM: 66%
Rattus norvegicus [27]
  DOM: 88%
Rattus norvegicus [5]
  DOM: 6%
Rattus norvegicus [30]
  No. of animals: 5
Rattus norvegicus [11]
  No. of animals: 5
Rattus norvegicus [6]
  DOM: 25%
Rattus norvegicus [7]
  No. of animals: 5
Rattus norvegicus [12]
  DOM: 43%
Rattus norvegicus [9]
  ED50: 1.45 mg/kg

## COc1cc(CC(C)N)c(OC)cc1I (racemic)
[1]
  pA2: 7.49
Rattus norvegicus [2]
  No. of animals: 5
Rattus norvegicus [3]
  DOM: 31%
Rattus norvegicus [5]
  DOM: 41%
Rattus norvegicus [11]
  No. of animals: 5
Homo sapiens
  HHP: 0.8 mg
Rattus norvegicus [6]
  DOM: 80%
Rattus norvegicus [7]
  No. of animals: 5
Rattus norvegicus [12]
  DOM: 93%
Rattus norvegicus [9]
  ED50: 0.42 mg/kg
Rattus norvegicus [10]
  No. of animals: 5

## CCc1cc(OC)c(CC(C)N)cc1OC (racemic)
Rattus norvegicus [2]
  No. of animals: 5
Rattus norvegicus [3]
  DOM: 44%
Rattus norvegicus [4]
  No. of animals: 5
Rattus norvegicus [5]
  DOM: 99%
Homo sapiens
  HHP: 1.5 mg
Rattus norvegicus [8]
  DOM: 10%
Rattus norvegicus [9]
  ED50: 0.23 mg/kg
Rattus norvegicus [10]
  No. of animals: 5

## CCOc1cc(OC)c(CC(C)N)cc1OC (racemic)
[1]
  pA2: 6.78
Rattus norvegicus [31]
  DOM: 68%
Rattus norvegicus [32]
  No. of animals: 1
Rattus norvegicus [33]
  DOM: 2%
Rattus norvegicus [24]
  No. of animals: 5
Homo sapiens
  HHP: 30 mg
Rattus norvegicus [25]
  No. of animals: 5
Rattus norvegicus [34]
  No. of animals: 4
Rattus norvegicus [35]
  No. of animals: 5
Rattus norvegicus [9]
  ED50: 6.33 mg/kg
Rattus norvegicus [36]
  DOM: 85%
Rattus norvegicus [37]
  DOM: 16%

## COc1cc([N+](=O)[O-])c(OC)cc1CC(C)N (racemic)
Rattus norvegicus [15]
  DOM: 87%
[1]
  pA2: 7.07
Rattus norvegicus [2]
  No. of animals: 5
Rattus norvegicus [13]
  No. of animals: 5
Rattus norvegicus [5]
  DOM: 32%
Rattus norvegicus [11]
  No. of animals: 4
Rattus norvegicus [12]
  DOM: 55%
Rattus norvegicus [9]
  ED50: 0.76 mg/kg

## COc1cc(OC)c(OC)cc1CC(C)N (racemic)
Rattus norvegicus [23]
  DOM: 70%
Rattus norvegicus [38]
  DOM: 20%
Rattus norvegicus [39]
  No. of animals: 6
Rattus norvegicus [40]
  DOM: 81%
Rattus norvegicus [41]
  No. of animals: 5
Rattus norvegicus [42]
  DOM: 59%
Homo sapiens
  HHP: 20 mg
Rattus norvegicus [25]
  No. of animals: 5
Rattus norvegicus [43]
  DOM: 90%
Rattus norvegicus [26]
  No. of animals: 5
Rattus norvegicus [9]
  ED50: 3.59 mg/kg

## COc1ccc(OC)c(CC(C)N)c1 (racemic)
Rattus norvegicus [38]
  ED50: 5.51 mg/kg
Homo sapiens
  HHP: 50 mg

## CC(N)Cc1ccccc1 (racemic) [AMPHETAMINE]
Rattus norvegicus [15]
  DOM: 26%
Rattus norvegicus [13]
  No. of animals: 3
Rattus norvegicus [11]
  No. of animals: 5
Rattus norvegicus [44]
  DOM: inactive
Rattus norvegicus [28]
  No. of animals: 0
Rattus norvegicus [24]
  No. of animals: 1
Rattus norvegicus [45]
  DOM: inactive
Rattus norvegicus [12]
  DOM: 2%

## COc1cc(CC(C)N)c(OC)cc1Br (racemic) [BROLAMFETAMINE]
Rattus norvegicus [16]
  No. of animals: 5
Rattus norvegicus [2]
  No. of animals: 5
Rattus norvegicus [3]
  DOM: 70%
Rattus norvegicus [4]
  No. of animals: 5
Rattus norvegicus [5]
  DOM: 91%
Homo sapiens
  HHP: 0.8 mg
Rattus norvegicus [19]
  DOM: 51%
Rattus norvegicus [8]
  DOM: 18%
Rattus norvegicus [9]
  ED50: 0.2 mg/kg
Rattus norvegicus [10]
  No. of animals: 5

## COc1cc(CC(C)N)c(OC)cc1C (racemic) [DOM]
Rattus norvegicus [38]
  ED50: 0.44 mg/kg
Homo sapiens
  HHP: 2 mg

## COc1ccc(CC(C)N)cc1 (racemic) [PARA-METHOXYAMPHETAMINE]
Rattus norvegicus [2]
  No. of animals: 5
Rattus norvegicus [13]
  No. of animals: 2
Rattus norvegicus [5]
  DOM: 13%
Rattus norvegicus [11]
  No. of animals: 4
Rattus norvegicus [12]
  DOM: 15%
Rattus norvegicus [14]
  DOM: inactive
